Results: patent publication US11217811B2, “Unique redox-active phenothiazine combinations with depressed melting points for increased solubility and method of use in energy storage and in redox flow batteries” (University of Kentucky Research Foundation, priority 2019, dated 2022)
Converted amounts (≈) assume the structure as drawn. Like-named read-outs stand apart in the source and are kept apart here.

Assay: Solubility in acetonitrile, determined by 1H NMR spectroscopy
Assay type: physicochemical
Experimental: The solubility of each of such mixtures was determined according to the following procedure: acetonitrile was added to the vials containing the samples in aliquots ranging from 0.1 to 1 mL; after every aliquot of solvent was added, each sample was shaken, sonicated, and lightly warmed up with a heat gun (about 40° C.); if the suspended solid persisted, another aliquot was added, and the process repeated until a clear solution was obtained. The warm solution was left to cool down to room temperature: if any solid formed, more solvent was added, and the process repeated until the solution remained clear indefinitely. The solubility was then determined using ^1H NMR spectroscopy. […] The results are summarized in Table 1: in both the cases examined, the solubility of EPT increased substantially when mixed with MEPT.

[1] = organic solvent or mixture, thermodynamic from solid, pure compound in acetonitrile, room temperature, read-out: Solubility of the single component
[2] = pure compound in acetonitrile, room temperature
[3] = acetonitrile, RPT-TFSI and the corresponding binary blend

## c1ccc(N2c3ccccc3Sc3ccccc32)cc1 [PhPT, N-phenylphenothiazine]
[1]
  solubility: 140 mM (≈ 38.6 mg/mL)

## COCCN1c2ccccc2[S+]c2ccccc21.F[B-](F)(F)F [MEPT-BF4, MEPT-tetrafluoroborate]
[2]
  Solubility of the single component: 310 mM

## CN1c2ccccc2[S+]c2ccccc21.O=S(=O)([N-]S(=O)(=O)C(F)(F)F)C(F)(F)F [MPT-TFSI, MPT-bis(trifluoromethanesulfonyl)imide]
[3]
  solubility: 1500 mM

## COCCN1c2ccccc2Sc2ccccc21 [MEPT, N-(2-methoxyethyl)phenothiazine]
acetonitrile
  Miscibility in acetonitrile: miscible in acetonitrile in all ratios

## CCN1c2ccccc2[S+]c2ccccc21.O=S(=O)([N-]S(=O)(=O)C(F)(F)F)C(F)(F)F [EPT-TFSI, EPT-bis(trifluoromethanesulfonyl)imide]
[3]
  solubility: 370 mM

## CCN1c2ccccc2[S+]c2ccccc21.F[B-](F)(F)F [EPT-BF4, EPT-tetrafluoroborate]
[2]
  Solubility of the single component: 330 mM

## CN1c2ccccc2Sc2ccccc21 [MPT, N-methylphenothiazine]
[1]
  solubility: 240 mM (≈ 51.2 mg/mL)

## CCN1c2ccccc2Sc2ccccc21 [EPT, N-ethylphenothiazine]
[1]
  solubility: 110 mM (≈ 25 mg/mL)

## O=S(=O)([N-]S(=O)(=O)C(F)(F)F)C(F)(F)F.c1ccc(N2c3ccccc3[S+]c3ccccc32)cc1 [PhPT-TFSI, PhPT-bis(trifluoromethanesulfonyl)imide]
[3]
  solubility: 1640 mM
